One experiment concerns the target PI3Kdelta (Homo sapiens (Human), UniProt O00329). The experiment is described as follows: HTRF PI3K biochemical assay, delta isoform. As to conditions: 0.3 nM enzyme, 100 uM ATP, 5 uM PIP2, form screened: Neutral. The gist of the method: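 0.3 nM PI3Kδ, pre-incubated 15 min at RT with compound (10-point 3-fold series), then reacted 1 h at RT with 100 uM ATP and 5 uM PIP2. After EDTA stop, PIP3 product detected by HTRF competition (GST-GRP1-PH, biotin-PIP3, Eu anti-GST, SA-APC), read 665/620 nm after 1 h.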

In the next experiment the target is PI3Kalpha (Homo sapiens (Human), UniProt P42336). Description: HTRF PI3K biochemical assay, alpha isoform (selectivity versus PI3Kalpha). The conditions noted are these: relative ratio (PI3K-alpha IC50 value/PI3K-delta IC50 value); form screened: Neutral. Put shortly: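 Uses recombinant PI3Kalpha at 0.5 nM with 100 uM ATP and 5 uM PIP2, after a 15 min RT compound pre-incubation and a 1 h RT reaction. PIP3 product displaces biotin-PIP3 from GST-GRP1 PH domain, read as HTRF 665/620 ratio. IC50 from a 10-point dose response, corrected via a PIP3 standard curve.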
PI3Kalpha, sequence (P42336 whole entry, the tested form may be a part, canonical isoform): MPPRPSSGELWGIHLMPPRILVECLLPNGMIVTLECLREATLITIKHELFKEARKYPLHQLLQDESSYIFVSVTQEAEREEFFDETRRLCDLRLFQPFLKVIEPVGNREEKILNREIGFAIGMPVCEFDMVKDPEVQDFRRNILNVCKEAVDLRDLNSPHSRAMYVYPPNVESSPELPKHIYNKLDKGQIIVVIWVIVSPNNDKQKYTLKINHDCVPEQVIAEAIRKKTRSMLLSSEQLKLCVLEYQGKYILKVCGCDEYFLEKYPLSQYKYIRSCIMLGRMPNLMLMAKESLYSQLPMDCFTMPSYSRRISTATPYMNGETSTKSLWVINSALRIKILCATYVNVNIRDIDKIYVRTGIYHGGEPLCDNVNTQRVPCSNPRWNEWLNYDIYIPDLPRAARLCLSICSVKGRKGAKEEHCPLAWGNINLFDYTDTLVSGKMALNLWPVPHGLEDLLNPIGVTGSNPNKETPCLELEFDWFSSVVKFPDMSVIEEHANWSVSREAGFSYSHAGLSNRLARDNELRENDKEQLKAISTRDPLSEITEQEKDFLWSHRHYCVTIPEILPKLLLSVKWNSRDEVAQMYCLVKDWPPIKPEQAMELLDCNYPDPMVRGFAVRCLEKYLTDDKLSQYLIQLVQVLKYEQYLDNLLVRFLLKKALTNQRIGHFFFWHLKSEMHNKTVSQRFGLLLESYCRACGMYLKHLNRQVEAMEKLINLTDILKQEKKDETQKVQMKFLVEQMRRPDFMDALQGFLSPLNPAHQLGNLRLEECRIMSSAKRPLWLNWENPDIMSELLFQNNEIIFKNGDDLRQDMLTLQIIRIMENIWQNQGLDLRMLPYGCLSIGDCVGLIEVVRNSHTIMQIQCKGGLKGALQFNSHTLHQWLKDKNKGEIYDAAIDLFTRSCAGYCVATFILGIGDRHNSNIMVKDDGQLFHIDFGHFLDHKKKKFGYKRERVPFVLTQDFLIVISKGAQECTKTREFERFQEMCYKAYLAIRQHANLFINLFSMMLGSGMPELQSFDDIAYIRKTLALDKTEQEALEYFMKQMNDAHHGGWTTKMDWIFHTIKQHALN
PI3Kalpha, sequence (P27986 whole entry partner, the tested form may be a part, canonical isoform): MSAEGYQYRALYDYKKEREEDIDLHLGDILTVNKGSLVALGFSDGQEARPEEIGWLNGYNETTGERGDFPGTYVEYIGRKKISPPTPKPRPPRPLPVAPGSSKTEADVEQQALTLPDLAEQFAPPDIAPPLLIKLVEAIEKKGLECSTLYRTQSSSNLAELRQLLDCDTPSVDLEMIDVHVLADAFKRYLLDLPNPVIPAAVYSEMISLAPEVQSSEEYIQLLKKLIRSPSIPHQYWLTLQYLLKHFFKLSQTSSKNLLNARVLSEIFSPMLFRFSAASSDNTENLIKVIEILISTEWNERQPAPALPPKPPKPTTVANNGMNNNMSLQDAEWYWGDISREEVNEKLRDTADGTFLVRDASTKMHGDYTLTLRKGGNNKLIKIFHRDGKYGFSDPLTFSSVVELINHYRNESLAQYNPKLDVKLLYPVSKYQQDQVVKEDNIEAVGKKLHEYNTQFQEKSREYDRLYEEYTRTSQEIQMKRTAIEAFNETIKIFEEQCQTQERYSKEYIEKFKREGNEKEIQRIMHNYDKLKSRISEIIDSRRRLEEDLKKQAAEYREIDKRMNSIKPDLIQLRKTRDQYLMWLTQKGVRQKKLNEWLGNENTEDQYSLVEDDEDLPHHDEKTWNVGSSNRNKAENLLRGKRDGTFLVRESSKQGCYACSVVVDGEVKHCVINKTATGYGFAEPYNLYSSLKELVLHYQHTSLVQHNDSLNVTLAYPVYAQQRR

PI3Kdelta, sequence (O00329 whole entry, canonical isoform): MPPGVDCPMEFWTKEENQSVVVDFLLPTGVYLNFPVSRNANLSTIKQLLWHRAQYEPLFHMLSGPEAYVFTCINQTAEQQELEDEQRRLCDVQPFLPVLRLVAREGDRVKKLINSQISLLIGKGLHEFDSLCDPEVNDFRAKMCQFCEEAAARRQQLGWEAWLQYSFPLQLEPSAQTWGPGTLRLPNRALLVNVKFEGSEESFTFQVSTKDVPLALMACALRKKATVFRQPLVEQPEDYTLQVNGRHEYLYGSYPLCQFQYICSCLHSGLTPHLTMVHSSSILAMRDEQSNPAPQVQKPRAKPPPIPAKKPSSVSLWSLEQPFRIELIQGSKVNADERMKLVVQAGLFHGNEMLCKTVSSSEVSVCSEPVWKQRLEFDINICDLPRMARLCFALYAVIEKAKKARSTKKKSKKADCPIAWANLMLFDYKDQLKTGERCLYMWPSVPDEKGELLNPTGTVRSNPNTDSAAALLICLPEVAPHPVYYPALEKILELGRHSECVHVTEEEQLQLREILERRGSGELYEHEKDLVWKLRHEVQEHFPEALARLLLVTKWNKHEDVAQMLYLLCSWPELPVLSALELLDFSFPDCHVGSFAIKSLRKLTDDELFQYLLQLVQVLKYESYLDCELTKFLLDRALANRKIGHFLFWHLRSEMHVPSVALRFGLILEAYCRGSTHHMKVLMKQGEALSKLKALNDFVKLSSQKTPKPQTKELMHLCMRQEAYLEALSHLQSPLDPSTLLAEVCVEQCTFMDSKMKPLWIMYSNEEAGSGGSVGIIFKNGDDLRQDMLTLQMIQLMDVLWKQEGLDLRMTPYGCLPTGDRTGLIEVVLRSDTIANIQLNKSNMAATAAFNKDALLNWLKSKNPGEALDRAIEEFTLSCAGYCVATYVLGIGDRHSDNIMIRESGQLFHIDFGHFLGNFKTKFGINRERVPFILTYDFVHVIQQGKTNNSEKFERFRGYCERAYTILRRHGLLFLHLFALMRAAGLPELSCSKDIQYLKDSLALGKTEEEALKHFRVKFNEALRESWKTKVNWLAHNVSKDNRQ
PI3Kdelta, sequence (P27986 whole entry partner, canonical isoform): as the sequence (P27986 whole entry partner, the tested form may be a part, canonical isoform) above

Compound `CC[C@H](Nc1ncnc2c1nc(-c1cnc(C)nc1)n2CC)C(=O)N1CCOCC1(C)C` [Compound 2-34, N-{(1S)-1-[(3,3-dimethylmorpholin-4-yl)carbonyl]propyl}-9-ethyl-8-(2-methylpyrimidin-5-yl)-9H-purin-6-amine] returned a concentration for half-maximal inhibition (IC50) on PI3Kdelta of 12 nM. Further, the “Selectivity versus PI3Kalpha” value at PI3Kalpha was greater than 10.
In turn, `CCC(Nc1ncnc2c1nc(-c1cnc(C)nc1)n2CC)C(=O)N1CCc2c(c(C(C)C)nn2C)C1` (single isomer, unassigned) [Compound 5-2, (S or R)-9-ethyl-N-(1-{[1-methyl-3-(1-methylethyl)-1,4,6,7-tetrahydro-5H-pyrazolo[4,3-c]pyridin-5-yl]carbonyl}propyl)-8-(2-methylpyrimidin-5-yl)-9H-purin-6-amine] came in with a concentration for half-maximal inhibition (IC50) against PI3Kdelta of 39 nM. At PI3Kalpha, the “Selectivity versus PI3Kalpha” value is on record as greater than 10.
On the same counts, the results for `CC[C@H](Nc1ncnc2c1nc(-c1cnc(C)nc1)n2CC)C(=O)N1CCOC2(CC2)C1` [Compound 2-29, 9-ethyl-8-(2-methylpyrimidin-5-yl)-N-[(1S)-1-(4-oxa-7-azaspiro[2.5]oct-7-ylcarbonyl)propyl]-9H-purin-6-amine] are 11 nM and greater than 10.
In turn, `CC[C@H](Nc1ncnc2c1nc(-c1cnc(C)nc1)n2CC)C(=O)N1CCOCC1CO` (mixture of isomers) [Compound 2-37, {4-[(2S)-2-{[9-ethyl-8-(2-methylpyrimidin-5-yl)-9H-purin-6-yl]amino}butanoyl]-(R and S)-morpholin-3-yl}methanol] showed an IC50 against PI3Kdelta of 64 nM. Further, the “Selectivity versus PI3Kalpha” value at PI3Kalpha is greater than 10.
In the same order, the values of `CCC(Nc1ncnc2c1nc(-c1cnc(C)nc1)n2CC)C(=O)N1CC(O)(C2CC2)C1` (single isomer, unassigned) [Compound 4-1, (S or R)-3-cyclopropyl-1-(2-{[9-ethyl-8-(2-methylpyrimidin-5-yl)-9H-purin-6-yl]amino}butanoyl)azetidin-3-ol] are 30 nM and greater than 10.
In the same order, the values of `CC[C@H](Nc1ncnc2c1nc(-c1cnc(C)nc1)n2CC)C(=O)N1C[C@@H](C)N(C)[C@@H](C)C1` [Compound 4-3, 9-ethyl-8-(2-methylpyrimidin-5-yl)-N-[(1S)-1-{[cis-3,4,5-trimethylpiperazin-1-yl]carbonyl}propyl]-9H-purin-6-amine] are 5.5 nM and greater than 10.
Consider `CCC(Oc1ncnc2c1nc(-c1cnn(CC)c1C)n2C)C(=O)N1CCCCC1` (racemic) [Compound 1-2, (R and S)-8-(1-ethyl-5-methyl-1H-pyrazol-4-yl)-9-methyl-6-[1-(piperidin-1-ylcarbonyl)propoxy]-9H-purine], for which, at PI3Kdelta, half-maximal inhibition (IC50) required 240 nM. Also, on PI3Kalpha, the “Selectivity versus PI3Kalpha” value is greater than 10.
On the same counts, the results for `CCn1c(-c2cnc(C)nc2)nc2c(NC[C@H](C)C(=O)N3C[C@@H](C)O[C@@H](C)C3)ncnc21` [Compound 2-54, N-{(2S)-3-[(cis)-2,6-dimethylmorpholin-4-yl]-2-methyl-3-oxopropyl}-9-ethyl-8-(2-methylpyrimidin-5-yl)-9H-purin-6-amine] are 250 nM and greater than 10.
On the same counts, the results for `CC[C@H](Nc1ccnc2c1nc(-c1ccc(C(F)(F)F)nc1)n2CC)C(=O)N1C[C@@H](C)O[C@@H](C)C1` [Compound 3-2, N-[(1S)-1-{[(cis)-2,6-dimethylmorpholin-4-yl]carbonyl}propyl]-3-ethyl-2-[6-(trifluoromethyl)pyridin-3-yl]-3H-imidazo[4,5-b]pyridin-7-amine] are 6.2 nM and greater than 10.
On the same counts, the results for `CC[C@H](Nc1ncnc2c1nc(-c1cnc(C)nc1)n2CC)C(=O)N1CCCOCC1` [Compound 2-25, 9-ethyl-8-(2-methylpyrimidin-5-yl)-N-[(1S)-1-(1,4-oxazepan-4-ylcarbonyl)propyl]-9H-purin-6-amine] are 21 nM and greater than 10.

Values taken from patent US10221178B2, “Purine inhibitors of human phosphatidylinositol 3-kinase delta” (MERCK SHARP & DOHME CORP., priority 2015, dated 2019).
